Experimental data as given in PMC7465040, “Cytotoxic and Anti-Plasmodial Activities of Stephania dielsiana Y.C. Wu Extracts and the Isolated Compounds” (Molecules, 2020).
Read-outs that look alike come from different tables or passages of the source.

How the values were obtained:
184B5 = assay: SRB cell proliferation assay, 184B5 non-cancer cells; type: cell-based, human; settings: Homo sapiens, 184B5, read-out: IC50 (μM ± SD) 184B5
Experimental: (§1) In vitro anticancer study: The in vitro anti-proliferative tests were carried out as described previously, using aliquots of the cell lines used therein. Briefly, HeLa, MDA-MB-231 and MDA-MB-468, MCF7, and 184B5 and MCF 10A cell lines were purchased from ATCC. The identity of the cell lines presented in this study were verified by short tandem repeat profiling by Genetica DNA Laboratories (www.celllineauthentication.com) (April 8, 2015). MCF10A was grown in DMEM F12 medium supplemented with 0.02 μg/mL epidermal growth factor, 10% FBS, 10 μg/mL insulin and […] hydrocortisone. MDA-MB-468 were grown in DMEM supplemented with 10% FBS and antibiotics cocktail (100 μg/mL streptomycin, 100 units/mL penicillin and 250 ng/mL amphotericin B). SRB cell proliferation assays were carried out as previously described, with some minor modifications. The concentration range for all tested cell lines were from 100–0.39 μg/mL for extracts and 100–0.39 μM for pure compounds. […] All experiments were carried out at least twice.

MCF 10A = assay: SRB cell proliferation assay, MCF10A non-cancer cells; type: cell-based; settings: Homo sapiens, read-out: IC50 (μM ± SD) MCF 10A
Experimental: as §1

[1] = test system: chloroquine-susceptible 3D7 P. falciparum strain; assay: In vitro anti-plasmodial assay (HRP2 ELISA), 3D7; type: cell-based, Plasmodium falciparum; settings: for IC50: 72 h, HRP2 ELISA, mean of five experiments, read-out: IC50 (μM ± SD) 3D7; for SI 3D7 184B5 / SI 3D7 MCF10A: Table 3; for SI 3D7 184B5: selectivity index between 184B5 and parasites 3D7; for SI 3D7 MCF10A: selectivity index between MCF10A and parasites 3D7; for Selective index SI on 3D7 strain: vs 184B5 and MCF10A
Experimental: (§2) Parasites were grown in A-positive human blood (Etablissement Français du Sang, Marseille, France) under controlled atmospheric conditions that consisted of 10% O2, 5% CO2, and 85% N2 at 37 °C with a humidity of 95%.
(§3) In vitro anti-plasmodial assay: The two P. falciparum strains 3D7 and W2 were synchronized twice with sorbitol before use. The clonality of these strains was verified both in our laboratory and in an independent laboratory from the Worldwide Anti-malarial Resistance Network (WWARN) by PCR genotyping of the polymorphic genetic markers msp1 and msp2 and microsatellite loci. The compounds were re-suspended in methanol or DMSO 5% (v/v) and then diluted in methanol to obtain final concentrations ranging from 0.008 to 500 μg/mL (final concentration of 0.5% of methanol or DMSO). […] The plates were incubated for 72 h at 37 °C in controlled atmospheric conditions 5% CO2, 10% O2, and […]. After thawing the plates, haemolysed cultures were homogenized by vortexing the plates. Both the success of the drug susceptibility assay and the appropriate volume of haemolysed culture to use for each assay were determined for each clinical isolate during a preliminary HRP2 ELISA. Both the pre-test and subsequent ELISA assays were performed using a commercial kit (Malaria Ag Celisa, ref KM2159, Cellabs PTY LTD, Brookvale, Australia) according to the manufacturer’s recommendation. The optical density (OD) of each sample was measured with a spectrophotometer (Safire 2, Tecan, Lyon, France). […] The anti-plasmodial in vitro assay was performed five times for each product. The IC50 values represented the mean value calculated from five experiments. According to Hout, a selectivity index (SI) was based on the ratio between anti-parasitic and cytotoxic activities. In the case of our study, a SI was calculated between non-tumorigenic cell line 184B5 and parasites 3D7 or W2 and/or MCF10A and these two parasites.

[2] = test system: chloroquine-resistant W2 P. falciparum strain; assay: In vitro anti-plasmodial assay (HRP2 ELISA), W2; type: cell-based, Plasmodium falciparum; settings: for IC50: 72 h, HRP2 ELISA, mean of five experiments, read-out: IC50 (μM ± SD) W2; for SI W2 184B5 / SI W2 MCF10A: Table 3; for SI W2 184B5: selectivity index between 184B5 and parasites W2; for SI W2 MCF10A: selectivity index between MCF10A and parasites W2
Experimental: as §2, §3

MDA-MB-231 = assay: SRB cell proliferation assay, MDA-MB-231; type: cell-based, human; settings: for IC50: Homo sapiens, MDA-MB-231, Table 2A, SRB, 72 h, read-out: IC50 (μM ± SD) MDA-MB-231; for Selectivity index (SI) 184B5 versus MDA-MB-231 / Selectivity index (SI) MCF10A versus MDA-MB-231: Table 2B; for Selectivity index (SI) 184B5 versus MDA-MB-231: non-cancer 184B5 vs cancer MDA-MB-231; for Selectivity index (SI) MCF10A versus MDA-MB-231: non-cancer MCF10A vs cancer MDA-MB-231
Experimental: as §1

HeLa = assay: SRB cell proliferation assay, HeLa; type: cell-based, human; settings: for IC50: Homo sapiens, HeLa, 72 h, Table 2A, SRB, read-out: IC50 (μM ± SD) HeLa; for Selectivity index (SI) 184B5 versus HeLa / Selectivity index (SI) MCF10A versus HeLa: Table 2B; for Selectivity index (SI) 184B5 versus HeLa: non-cancer 184B5 vs cancer HeLa; for Selectivity index (SI) MCF10A versus HeLa: non-cancer MCF10A vs cancer HeLa
Experimental: as §1

[3] = test system: HeLa, MDA-MB231, MDA-MB-468, MCF7, 184B5 and MCF10A cell lines; assay: SRB cell proliferation assay, whole panel of cell lines; type: cell-based, human; settings: for IC50: Homo sapiens, cancer and non-cancer cell lines, read-out: IC50 values, range over the cell lines examined
Experimental: as §1

MCF7 = assay: SRB cell proliferation assay, MCF7; type: cell-based, human; settings: for IC50: Homo sapiens, MCF7, Table 2A, SRB, 72 h, read-out: IC50 (μM ± SD) MCF7; for Selectivity index (SI) 184B5 versus MCF7 / Selectivity index (SI) MCF10A versus MCF7: Table 2B; for Selectivity index (SI) 184B5 versus MCF7: non-cancer 184B5 vs cancer MCF7; for Selectivity index (SI) MCF10A versus MCF7: non-cancer MCF10A vs cancer MCF7
Experimental: as §1

MDA-MB-468 = assay: SRB cell proliferation assay, MDA-MB-468; type: cell-based, human; settings: for IC50: Homo sapiens, MDA-MB-468, Table 2A, SRB, 72 h, read-out: IC50 (μM ± SD) MDA-MB-468; for Selectivity index (SI) 184B5 versus MDA-MB-468 / Selectivity index (SI) MCF10A versus MDA-MB-468: Table 2B; for Selectivity index (SI) 184B5 versus MDA-MB-468: non-cancer 184B5 vs cancer MDA-MB-468; for Selectivity index (SI) MCF10A versus MDA-MB-468: non-cancer MCF10A vs cancer MDA-MB-468
Experimental: as §1

[4] = test system: Plasmodium falciparum 3D7 and W2 strains; assay: In vitro anti-plasmodial assay, both strains; type: cell-based
Experimental: as §2, §3

[5] = Plasmodium falciparum, 3D7, 72 h
[6] = Plasmodium falciparum, W2, 72 h

SMILES | IC50 (184B5; Table 2A, SRB, 72 h) | IC50 (184B5; Table 3, non-cancer cell line) | IC50 (MCF 10A; Table 2A, SRB, 72 h) | IC50 (MCF 10A; Table 3, non-cancer cell line) | IC50 [1, 5] | SI 3D7 184B5 [1] | SI 3D7 MCF10A [1] | Selective index SI on 3D7 strain [1] | IC50 [2, 6] | SI W2 184B5 [2] | SI W2 MCF10A [2] | IC50 (MDA-MB-231) | Selectivity index (SI) 184B5 versus MDA-MB-231 (MDA-MB-231) | Selectivity index (SI) MCF10A versus MDA-MB-231 (MDA-MB-231) | IC50 (HeLa) | Selectivity index (SI) 184B5 versus HeLa (HeLa) | Selectivity index (SI) MCF10A versus HeLa (HeLa) | IC50 (MCF7) | IC50 (MDA-MB-468) | Anti-plasmodial activity against both 3D7 and W2 (in words) [4] | also measured
COc1ccc2c(c1OC)-c1c3c(cc4c1C(C2)N(C)CC4)OCO3 (centres unmarked) [O-methylbulbocapine 5, O-methylbulbocapnine] | 73.26 ± 0.47 µM | 73.26 ± 0.47 µM | 59.5 ± 1.9 µM | 59.5 ± 1.9 µM | 2.81 ± 0.4 µM | 26.07 | 21.16 | > 20 | 5.71 ± 0.62 µM | 12.83 | 10.42 | 56.6 ± 9.08 µM | 1.29 | 1.05 | 70.4 ± 11.4 µM | 1.04 | 0.85 | 39.4 ± 6.2 µM | 48.1 ± 1.69 µM | strong activity | IC50 [3]: 39 to 73 µM; Selectivity index (SI) 184B5 versus MCF7 (MCF7): 1.86; Selectivity index (SI) MCF10A versus MCF7 (MCF7): 1.51; Selectivity index (SI) 184B5 versus MDA-MB-468 (MDA-MB-468): 1.52; Selectivity index (SI) MCF10A versus MDA-MB-468 (MDA-MB-468): 1.24
COc1cc2c(cc1OC)-c1cc3ccc(OC)c(OC)c3c[n+]1CC2 [Palmatine chloride 6, palmatine] | > 50 µM | > 50 µM | > 50 µM | > 50 µM | 1.25 ± 0.28 µM |  |  | > 20 | 3.19 ± 0.64 µM | >15.67 | >15.67 | > 50 µM |  |  | > 100 µM |  |  | > 50 µM | > 50 µM | strong activity | Anti-proliferative activity (in words) [3]: did not show any effect
COc1cc2c(cc1OC)[C@@H]1Cc3ccc(OC)c(OC)c3CN1CC2 [Tetrahydropalmatine 7, tetrahydropalmatine] | > 50 µM | > 50 µM | > 50 µM | > 50 µM |  | >0.18 | >0.18 |  | 216 to 226 µM | >0.22 | >0.22 | > 50 µM |  |  | > 50 µM |  |  | > 50 µM | > 50 µM | not active | IC50 [1]: 276 ± 14.4 µM; IC50 [2]: 226 ± 19.8 µM; Anti-proliferative activity (in words) [3]: did not show any effect
COc1cccc2c1C(=O)c1c3c-2c2c(cc3cc[n+]1C)OCO2 [Thailandine 2, thailandine] | 3.02 ± 0.1 µM | 3.02 ± 0.1 µM | 5.01 ± 0.15 µM | 5.01 ± 0.15 µM | 0.22 µM | 12.58 | 20.86 |  | 0.24 µM | 13.73 | 22.77 | 7.11 ± 0.07 µM | 0.42 | 0.70 | 4.1 ± 0.4 µM | 0.73 | 1.20 | 1.99 ± 1.36 µM | 0.78 ± 0.12 µM | strong activity | SI against P. falciparum (3D7 vs. 184B5) [1]: 12.6 fold; IC50 [1]: 0.24 ± 0.04 µM; SI against P. falciparum (W2 vs. MCF10A) [2]: 22.8 fold; IC50 [2]: 0.22 ± 0.02 µM; IC50 [3]: 0.78 to 7.11 µM; Selectivity index (SI) 184B5 versus MCF7 (MCF7): 1.50; Selectivity index (SI) MCF10A versus MCF7 (MCF7): 2.50; Selectivity index (SI) 184B5 versus MDA-MB-468 (MDA-MB-468): 3.90; Selectivity index (SI) MCF10A versus MDA-MB-468 (MDA-MB-468): 6.40; Selectivity index (SI) between cells and parasites ([4]; 184B5, MCF10A vs 3D7, W2): > 12
